≈ marks a conversion by molar mass, not a printed value.
Columns and labels:
Type in all cases: cell-based
[1] = tested on: S. aureus; assay: MIC assay, S. aureus
[2] = tested on: S. pneumo.; assay: MIC assay, S. pneumo.
[3] = tested on: E. faecalis; assay: MIC assay, E. faecalis
[4] = tested on: H. flu; assay: MIC assay, H. flu
[5] = tested on: E. coli; assay: MIC assay, E. coli

SMILES	MIC (μg/mL) S. aureus [1] [µg/mL]	MIC (μg/mL) S. pneumo. [2] [µg/mL]	MIC (μg/mL) E. faecalis [3] [µg/mL]	MIC (μg/mL) H. flu [4] [µg/mL]	MIC (μg/mL) E. coli [5] [µg/mL]
CO[C@H]1/C=C/O[C@@]2(C)Oc3c(C)c(O)c4c(=O)c(c5sc6cc(N7C[C@@H](C)N[C@@H](C)C7)ccc6nc-5c4c3C2=O)NC(=O)/C(C)=C\C=C\[C@H](C)[C@H](O)[C@@H](C)[C@@H](O)[C@@H](C)[C@H](OC(C)=O)[C@@H]1C [Compound 64, 5′-[(3R,5S)-3,5-dimethyl-1-piperazinyl]benzthiazinorifamycin]	0.004 (≈ 0.00438 µM)	0.00012 (≈ 0.000131 µM)	0.12 (≈ 0.131 µM)	0.25 (≈ 0.274 µM)	4 (≈ 4.38 µM)
CO[C@H]1/C=C/O[C@@]2(C)Oc3c(C)c(O)c4c(=O)c(c5oc6cc(N7CCC(CCO)CC7)cc(O)c6nc-5c4c3C2=O)NC(=O)/C(C)=C\C=C\[C@H](C)[C@H](O)[C@@H](C)[C@@H](O)[C@@H](C)[C@H](O)[C@@H]1C [Compound 66, 25-O-deacetyl-3′-hydroxy-5′-[4-(2-hydroxyethyl)-1-piperidinyl]benzoxazinorifamycin]	0.004 (≈ 0.00451 µM)	0.0005 (≈ 0.000564 µM)	0.12 (≈ 0.135 µM)	0.12 (≈ 0.135 µM)	4 (≈ 4.51 µM)
CO[C@H]1/C=C/O[C@@]2(C)Oc3c(C)c(O)c4c(=O)c(c5sc6cc(N7C[C@@H](C)N(CC8CC8)C[C@@H]7C)ccc6nc-5c4c3C2=O)NC(=O)/C(C)=C\C=C\[C@H](C)[C@H](O)[C@@H](C)[C@@H](O)[C@@H](C)[C@H](OC(C)=O)[C@@H]1C [Compound 68, 5′-[(2S,5R)-4-(cyclopropylmethyl)-2,5-dimethylpiperazinyl]benzthiazinorifamycin]	0.06 (≈ 0.062 µM)	0.0005 (≈ 0.000517 µM)	2 (≈ 2.07 µM)	0.5 (≈ 0.517 µM)	>8
CO[C@H]1/C=C/O[C@@]2(C)Oc3c(C)c(O)c4c(=O)c(c5sc6cc(N7CCC(N(C)C)CC7)ccc6nc-5c4c3C2=O)NC(=O)/C(C)=C\C=C\[C@H](C)[C@H](O)[C@@H](C)[C@@H](O)[C@@H](C)[C@H](OC(C)=O)[C@@H]1C [Compound 69, 5′-[4-N,N-dimethylamino-1-piperidinyl]benzthiazinorifamycin]	0.015 (≈ 0.0162 µM)	0.00025 (≈ 0.00027 µM)	0.5 (≈ 0.539 µM)	0.5 (≈ 0.539 µM)	4 (≈ 4.31 µM)
CO[C@H]1/C=C/O[C@@]2(C)Oc3c(C)c(O)c4c(=O)c(c5oc6cc(N7CCC(C)(N(C)C)CC7)cc(O)c6nc-5c4c3C2=O)NC(=O)/C(C)=C\C=C\[C@H](C)[C@H](O)[C@@H](C)[C@@H](O)[C@@H](C)[C@H](OC(C)=O)[C@@H]1C [Compound 71, 3′-hydroxy-5′-[4-methyl-4-N,N-dimethylamino-1-piperidinyl]benzoxazinorifamycin]	0.008 (≈ 0.0085 µM)	0.00012 (≈ 0.000128 µM)	0.25 (≈ 0.266 µM)	0.5 (≈ 0.531 µM)	4 (≈ 4.25 µM)
CO[C@H]1/C=C/O[C@@]2(C)Oc3c(C)c(O)c4c(=O)c(c5oc6cc(N7CCC(C)(NC(C)=O)CC7)cc(O)c6nc-5c4c3C2=O)NC(=O)/C(C)=C\C=C\[C@H](C)[C@H](O)[C@@H](C)[C@@H](O)[C@@H](C)[C@H](OC(C)=O)[C@@H]1C [Compound 72, 3′-hydroxy-5′-[4-methyl-4-acetylamino-1-piperidinyl]benzoxazinorifamycin]	0.008 (≈ 0.00838 µM)	0.00025 (≈ 0.000262 µM)	2 (≈ 2.09 µM)	0.5 (≈ 0.524 µM)	>8
CO[C@H]1/C=C/O[C@@]2(C)Oc3c(C)c(O)c4c(=O)c(c5oc6cc(N7CCC(C)(N(C)C)CC7)cc(O)c6nc-5c4c3C2=O)NC(=O)/C(C)=C\C=C\[C@H](C)[C@H](O)[C@@H](C)[C@@H](O)[C@@H](C)[C@H](O)[C@@H]1C [Compound 73, 25-O-deacetyl-3′-hydroxy-5′-[4-methyl-4-N,N-dimethylamino-1-piperidinyl]benzoxazinorifamycin]	0.002 (≈ 0.00222 µM)	0.00025 (≈ 0.000278 µM)	0.03 (≈ 0.0334 µM)	0.12 (≈ 0.133 µM)	2 (≈ 2.22 µM)
CO[C@H]1/C=C/O[C@@]2(C)Oc3c(C)c(O)c4c(=O)c(c5oc6cc(N7CC[C@@H](N(C)C)C7)cc(O)c6nc-5c4c3C2=O)NC(=O)/C(C)=C\C=C\[C@H](C)[C@H](O)[C@@H](C)[C@@H](O)[C@@H](C)[C@H](OC(C)=O)[C@@H]1C [Compound 75, 3′-hydroxy-5′-[(3R)-N,N-dimethylamino-1-pyrrolidinyl]benzoxazinorifamycin]	0.002 (≈ 0.00219 µM)	0.00012 (≈ 0.000131 µM)	0.12 (≈ 0.131 µM)	0.25 (≈ 0.274 µM)	4 (≈ 4.38 µM)
CO[C@H]1/C=C/O[C@@]2(C)Oc3c(C)c(O)c4c(=O)c(c5sc6cc(N7CCN8CCC[C@H]8C7)ccc6nc-5c4c3C2=O)NC(=O)/C(C)=C\C=C\[C@H](C)[C@H](O)[C@@H](C)[C@@H](O)[C@@H](C)[C@H](OC(C)=O)[C@@H]1C [Compound 76, 5′-[(8aS)octahydropyrrolo[1,2-a]pyrazin-2-yl]benzthiazinorifamycin]	0.008 (≈ 0.00865 µM)	0.00025 (≈ 0.00027 µM)	0.5 (≈ 0.54 µM)	0.25 (≈ 0.27 µM)	4 (≈ 4.32 µM)
